Key:
[1] = test system: barnyardgrass (Echinochloa crus-galli L.); experiment: Test Example 1: foliar treatment, growth inhibition rate, barnyardgrass; format: in vivo; conditions: 31 g/ha active ingredient, visually observed 17th to 23rd day after application
Outline: (§1)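 Post-emergence foliar spray, pot test; WP/EC formulation in water at 500 L/ha, + 0.1 vol % spreader; leaf stage at treatment: corn 2.0–3.5, green foxtail 1.0–3.0, rice 1.0–2.5, wheat 1.7–3.4; visual % inhibition at 17–23 DAT (0 = untreated, 100 = dead).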

[2] = test system: crabgrass (Digitaria sanguinalis L.); experiment: Test Example 1: foliar treatment, growth inhibition rate, crabgrass; format: in vivo; conditions: 31 g/ha active ingredient, visually observed 17th to 23rd day after application
Outline: (§2)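 Visual scoring of growth inhibition, 0% (untreated) to 100% (complete kill), on days 17–23 following post-emergence spray of formulated compound in water (500 L/ha, 0.1 vol % spreader); plants treated at set leaf stages, e.g. corn 2.0–3.5, wheat 1.7–3.4.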

[3] = test system: greenfoxtail (Setaria viridis L.); experiment: Test Example 1: foliar treatment, growth inhibition rate, greenfoxtail; format: in vivo; conditions: 31 g/ha active ingredient, visually observed 17th to 23rd day after application
Outline: (§3)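 Visual growth inhibition rating, 0% (as untreated) to 100% (complete kill), taken 17–23 d after foliar spray. Compound was formulated as wettable powder or EC, diluted to 500 L/ha water with 0.1 vol % agricultural spreader, and applied to pot-grown seedlings of corn (2.0–3.5 leaf), greenfoxtail (1.0–3.0), rice (1.0–2.5) and wheat (1.7–3.4).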

[4] = test system: redroot pigweed (Amaranthus retroflexus L.); experiment: Test Example 1: foliar treatment, growth inhibition rate, redroot pigweed; format: in vivo; conditions: 31 g/ha active ingredient, visually observed 17th to 23rd day after application
Outline: as §2

[5] = test system: prickly sida (Sida spinosa L.); experiment: Test Example 1: foliar treatment, growth inhibition rate, prickly sida; format: in vivo; conditions: 31 g/ha active ingredient, visually observed 17th to 23rd day after application
Outline: as §2

[6] = test system: velvetleaf (Abutilon theophrasti MEDIC.); experiment: Test Example 1: foliar treatment, growth inhibition rate, velvetleaf; format: in vivo; conditions: 31 g/ha active ingredient, visually observed 17th to 23rd day after application
Outline: as §1

rice (Oryza sativa L.) = experiment: Test Example 1: foliar treatment, growth inhibition rate, rice; format: in vivo; conditions: 31 g/ha active ingredient, visually observed 17th to 23rd day after application
Outline: as §3

wheat (Triticum spp.) = experiment: Test Example 1: foliar treatment, growth inhibition rate, wheat; format: in vivo; conditions: 31 g/ha active ingredient, visually observed 17th to 23rd day after application
Outline: as §3

corn (Zea mays L.) = experiment: Test Example 1: foliar treatment, growth inhibition rate, corn; format: in vivo; conditions: 31 g/ha active ingredient, visually observed 17th to 23rd day after application
Outline: as §3

[7] = test system: soybean (Glycine max Merr.); experiment: Test Example 1: foliar treatment, growth inhibition rate, soybean; format: in vivo; conditions: 31 g/ha active ingredient, visually observed 17th to 23rd day after application
Outline: as §2

barnyardgrass = experiment: Test Example 2: soil application on the day after sowing, growth inhibition rate, barnyardgrass; format: in vivo, Echinochloa crus-galli L.; conditions: 250 g/ha active ingredient, observed on 19th to 24th day
Outline: (§4)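 Upland soil pots sown with crop and weed seeds; next day wettable powder or emulsifiable concentrate at prescribed active-ingredient amounts, diluted to 500 L/ha water, sprayed onto soil. Growth inhibition scored visually 19–24 days later, 0 (as untreated) to 100% (complete kill).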

crabgrass = experiment: Test Example 2: soil application on the day after sowing, growth inhibition rate, crabgrass; format: in vivo, Digitaria sanguinalis L.; conditions: 250 g/ha active ingredient, observed on 19th to 24th day
Outline: as §4

greenfoxtail = experiment: Test Example 2: soil application on the day after sowing, growth inhibition rate, greenfoxtail; format: in vivo, Setaria viridis L.; conditions: 250 g/ha active ingredient, observed on 19th to 24th day
Outline: as §4

redroot pigweed = experiment: Test Example 2: soil application on the day after sowing, growth inhibition rate, redroot pigweed; format: in vivo, Amaranthus retroflexus L.; conditions: 250 g/ha active ingredient, observed on 19th to 24th day
Outline: as §4

prickly sida = experiment: Test Example 2: soil application on the day after sowing, growth inhibition rate, prickly sida; format: in vivo, Sida spinosa L.; conditions: 250 g/ha active ingredient, observed on 19th to 24th day
Outline: as §4

velvetleaf = experiment: Test Example 2: soil application on the day after sowing, growth inhibition rate, velvetleaf; format: in vivo, Abutilon theophrasti MEDIC.; conditions: 250 g/ha active ingredient, observed on 19th to 24th day
Outline: as §4

rice = experiment: Test Example 2: soil application on the day after sowing, growth inhibition rate, rice; format: in vivo, Oryza sativa L.; conditions: 250 g/ha active ingredient, observed on 19th to 24th day
Outline: as §4

wheat = experiment: Test Example 2: soil application on the day after sowing, growth inhibition rate, wheat; format: in vivo, Triticum spp.; conditions: 250 g/ha active ingredient, observed on 19th to 24th day
Outline: as §4

corn = experiment: Test Example 2: soil application on the day after sowing, growth inhibition rate, corn; format: in vivo, Zea mays L.; conditions: 250 g/ha active ingredient, observed on 19th to 24th day
Outline: as §4

soybean = experiment: Test Example 2: soil application on the day after sowing, growth inhibition rate, soybean; format: in vivo, Glycine max Merr.; conditions: 250 g/ha active ingredient, observed on 19th to 24th day
Outline: as §4

Compound: CCOC(=O)c1c(S(C)(=O)=O)ccc(C(=O)c2cnn(CC)c2OC(=O)SCC)c1C [compound 61]
- Growth inhibition rate (%) Barnyardgrass [1]: 98%
- Growth inhibition rate (%) Crabgrass [2]: 98%
- Growth inhibition rate (%) Greenfoxtail [3]: 100%
- Growth inhibition rate (%) redroot pigweed [4]: 100%
- Growth inhibition rate (%) Prickly sida [5]: 95%
- Growth inhibition rate (%) Velvetleaf [6]: 95%
- Growth inhibition rate (%) Rice (rice (Oryza sativa L.)): 90%
- Growth inhibition rate (%) Wheat (wheat (Triticum spp.)): 60%
- Growth inhibition rate (%) Corn (corn (Zea mays L.)): 50%
- Growth inhibition rate (%) Soybean [7]: 80%
- Growth inhibition rate (%) Barnyardgrass (barnyardgrass): 100%
- Growth inhibition rate (%) Crabgrass (crabgrass): 100%
- Growth inhibition rate (%) Greenfoxtail (greenfoxtail): 100%
- Growth inhibition rate (%) redroot pigweed (redroot pigweed): 100%
- Growth inhibition rate (%) Prickly sida (prickly sida): 80%
- Growth inhibition rate (%) Velvetleaf (velvetleaf): 90%
- Growth inhibition rate (%) Rice (rice): 85%
- Growth inhibition rate (%) Wheat (wheat): 30%
- Growth inhibition rate (%) Corn (corn): 0%
- Growth inhibition rate (%) Soybean (soybean): 20%

Compound: COC(=O)c1c(S(C)(=O)=O)ccc(C(=O)c2cnn(C)c2OC(=O)SC(C)C)c1C [compound 86]
- Growth inhibition rate (%) Barnyardgrass [1]: 95%
- Growth inhibition rate (%) Crabgrass [2]: 90%
- Growth inhibition rate (%) Greenfoxtail [3]: 95%
- Growth inhibition rate (%) redroot pigweed [4]: 95%
- Growth inhibition rate (%) Prickly sida [5]: 80%
- Growth inhibition rate (%) Velvetleaf [6]: 95%
- Growth inhibition rate (%) Rice (rice (Oryza sativa L.)): 95%
- Growth inhibition rate (%) Wheat (wheat (Triticum spp.)): 20%
- Growth inhibition rate (%) Corn (corn (Zea mays L.)): 30%
- Growth inhibition rate (%) Soybean [7]: 85%
- Growth inhibition rate (%) Barnyardgrass (barnyardgrass): 95%
- Growth inhibition rate (%) Crabgrass (crabgrass): 100%
- Growth inhibition rate (%) Greenfoxtail (greenfoxtail): 95%
- Growth inhibition rate (%) redroot pigweed (redroot pigweed): 100%
- Growth inhibition rate (%) Prickly sida (prickly sida): 90%
- Growth inhibition rate (%) Velvetleaf (velvetleaf): 95%
- Growth inhibition rate (%) Rice (rice): 90%
- Growth inhibition rate (%) Wheat (wheat): 0%
- Growth inhibition rate (%) Corn (corn): 0%
- Growth inhibition rate (%) Soybean (soybean): 0%

Compound: CCSC(=O)Oc1c(C(=O)c2ccc(S(C)(=O)=O)c(OC3CCOC3)c2C)cnn1C (stereo not drawn) [compound 217]
- Growth inhibition rate (%) Barnyardgrass [1]: 100%
- Growth inhibition rate (%) Crabgrass [2]: 100%
- Growth inhibition rate (%) Greenfoxtail [3]: 98%
- Growth inhibition rate (%) redroot pigweed [4]: 100%
- Growth inhibition rate (%) Prickly sida [5]: 70%
- Growth inhibition rate (%) Velvetleaf [6]: 80%
- Growth inhibition rate (%) Rice (rice (Oryza sativa L.)): 90%
- Growth inhibition rate (%) Wheat (wheat (Triticum spp.)): 40%
- Growth inhibition rate (%) Corn (corn (Zea mays L.)): 0%
- Growth inhibition rate (%) Soybean [7]: 98%
- Growth inhibition rate (%) Barnyardgrass (barnyardgrass): 80%
- Growth inhibition rate (%) Crabgrass (crabgrass): 95%
- Growth inhibition rate (%) Greenfoxtail (greenfoxtail): 60%
- Growth inhibition rate (%) redroot pigweed (redroot pigweed): 95%
- Growth inhibition rate (%) Prickly sida (prickly sida): 60%
- Growth inhibition rate (%) Velvetleaf (velvetleaf): 20%
- Growth inhibition rate (%) Rice (rice): 80%
- Growth inhibition rate (%) Wheat (wheat): 0%
- Growth inhibition rate (%) Corn (corn): 0%
- Growth inhibition rate (%) Soybean (soybean): 0%
